Read-outs that look alike come from different tables or passages of the source.
Legend:
C2C12 cells = assay: IAM-TPP uptake into mitochondria within cells (immunocytochemistry, confocal microscopy); type: cell-based, mouse; details: 1 μM, 3 h, ±10 μM FCCP
Method: (§1) After 15 min the mice were injected ip with DNP (200 or 300 μg/kg) or saline carrier and after a further 15 min later they were killed and the content of [^3H]FluoroUndecylTPP in the tissues determined. Data are means ± range for two mice per condition. B, IAM-TPP is shown being taken up in to mitochondria within a cell where it reacts with thiol proteins to form a thioether adduct that can then be detected by immunoblotting. C, Confocal image of IAM-TPP binding to mitochondria in cells. C2C12 cells were incubated with 1 μM IAM-TPP for 3 h±10 μM FCCP. The cells were then fixed and the location of the TPP moiety within the cells determined by labelling with antiserum against the TPP moiety, visualised by immunofluorescence confocal microscopy. […] The mitochondria (40 μg protein) were separated by SDS-PAGE and proteins that had been labelled with IAM-TPP were detected by immunoblotting using antiserum against the TPP moiety. […]
(§2) To assess uptake of IAM-TPP by mitochondria in vivo, mice were injected iv by the tail vein as above with 500 nmol IAM-TPP in 100 μL sterile PBS. One hour later the mice were killed by cervical dislocation and liver and heart mitochondria prepared by homogenisation followed by differential centrifugation and the protein content determined by the bicinchoninic acid assay using bovine serum albumin as a standard. […]

[1] = tested on: liver and heart mitochondria; assay: IAM-TPP uptake by mitochondria in vivo (immunoblot with anti-TPP antiserum); set-up: species or system mice; details: 500 nmol iv, mitochondria isolated 1 h later
Method: as §1, §2

[2] = tested on: mitochondrial protein thiols; assay: Incubation of IAM-TPP with isolated mitochondria; details: data not shown
[3] = Octan-1-ol/PBS partition coefficient; details: determined in this study
[4] = Tissue and blood distribution of [3H]TPP compounds after iv tail vein injection
Method: A sample of the [^3H]compound solution injected was retained to calculate the specific activity, which was subsequently used to determine the tissue content of the compound. At the indicated times after injection, the mice were killed by cervical dislocation and a blood sample of ˜100-200 μL was obtained by cardiac puncture. The organs were then removed, cleared of blood, transferred to pre-chilled Eppendorf tubes on ice, weighed and stored at −80° C. until processing. The tissues taken were: heart, kidneys, liver, brain, skeletal muscle (gastrocnemius) and white adipose tissue (subcutaneous). […] The mice were monitored after injection to ensure no pathology or distress and all procedures were carried out under the approval of the University of Otago animal ethics committee.
Extraction of [^3H] Compounds from Tissues Tissues were thawed at room temperature and transferred to 50 mL Falcon tubes. Ice-cold methanol 4° C.; 1 mL/100 mg tissue wet weight) was added to the tissue and the tissue homogenised using an Ultraturrax homogeniser (2×30 s on ice).
The homogenate was transferred in 1 mL batches to 1.5 mL Eppendorf tubes and centrifuged (10,000×g for 8 min at 4° C.). The methanol extract was decanted into a 20 ml glass scintillation vial (Wheaton) and the methanol evaporated under a stream of N2. Further ice-cold methanol (1 mL/100 mg) was added to the tissue homogenate pellets, vortexed for 1 min, centrifuged as above and the methanol extract decanted to a fresh 20 mL glass scintillation vial and evaporated. This procedure was repeated 3 more times to give 5 extracts per tissue sample. […] The specific activity of the injected [^3H] compound was then used to calculate the tissue content uptake as mol compound/g wet weight tissue. The half lives of compounds in organs were determined from the first order rate constants for loss of [^3H] compound from the organs, measured as the slope of ln[TPP compound] against time for the first 5 h after iv injection.

[5] = published values; cited from earlier work
[6] = tested on: mitochondrial membrane potential; assay: Effect of the uncoupler DNP on organ uptake of [3H]FluoroUndecylTPP in vivo; set-up: species or system mice; details: DNP 200 or 300 μg/kg ip 15 min after probe, organs taken 15 min later; dose dependent
Method: as §1
Therefore it is likely that once the alkylTPP compounds are accumulated within tissues they are predominantly localised within mitochondria, driven by the membrane potential. To see if this was the case in these experiments, it was next determined if the uptake of the alkylTPP compounds in vivo was decreased by lowering the mitochondrial membrane potential. […]

[7] = Monitoring of mice for toxicity after iv injection of TPP cations; type: in vivo; details: 100 nmol iv in mice
Method: Female C57/BL6 mice (20-25 g) were maintained on a 12 h light/dark cycle with ad libitum access to standard lab chow and water. […] A sample of the [^3H]compound solution injected was retained to calculate the specific activity, which was subsequently used to determine the tissue content of the compound. At the indicated times after injection, the mice were killed by cervical dislocation and a blood sample of ˜100-200 μL was obtained by cardiac puncture. The organs were then removed, cleared of blood, transferred to pre-chilled Eppendorf tubes on ice, weighed and stored at −80° C. until processing. The tissues taken were: heart, kidneys, liver, brain, skeletal muscle (gastrocnemius) and white adipose tissue (subcutaneous). […] The mice were monitored after injection to ensure no pathology or distress and all procedures were carried out under the approval of the University of Otago animal ethics committee.

[8] = 24 h after iv injection, other studies; cited from earlier work
[9] = mice, 100 nmol iv bolus, first 5 h after injection

SMILES: CS(=O)(=O)[O-].O=C(CI)NCCCCC[P+](c1ccccc1)(c1ccccc1)c1ccccc1 [IAM-TPP]
- localisation within cells (C2C12 cells): uncoupler-sensitive localisation of IAM-TPP within mitochondria
- labelling of mitochondrial proteins in vivo [1]: labelling of heart and liver mitochondrial proteins
- reaction with protein thiols of isolated mitochondria [2]: rapidly reacted with protein thiols
- Octanol/PBS partition coefficient [3]: 19±1

SMILES: CCCCCCCCCC[P+](c1ccccc1)(c1ccccc1)c1ccccc1 [DecylTPP]
- half life for clearance from fat and muscle ([4]; mouse, in vivo, iv): 7 to 12 h
- half life for loss from the heart ([4]; mouse, in vivo, iv): ~15 h
- half life for loss from the kidneys ([4]; mouse, in vivo, iv): ~3 h
- half life for loss from the liver ([4]; mouse, in vivo, iv): ~3 h
- Octanol/PBS partition coefficient [5]: 5000

SMILES: C[P+](c1ccccc1)(c1ccccc1)c1ccccc1 [TPMP]
- half life for loss from the heart [4, 9]: ~2 h
- half life for loss from the kidneys [4, 9]: ~2 h
- half life for loss from the liver [4, 9]: ~3 h
- half life for clearance from fat and muscle ([4]; mice, 100 nmol iv bolus, estimate only): 1 to 2 h

SMILES: CS(=O)(=O)[O-].FCCCCCCCCCCC[P+](c1ccccc1)(c1ccccc1)c1ccccc1 [FluoroUndecylTPP, 11-fluoroundecyltriphenylphosphonium mesylate]
- half life for loss from the heart [4, 9]: ~21 h
- half life for loss from the kidneys [4, 9]: ~3 h
- half life for loss from the liver [4, 9]: ~3 h
- enhancement of organ/blood concentration ratio relative to TPMP ([4]; mice, iv): over a hundred-fold
- decrease of uptake into the organs by DNP [6]: up to 40%

SMILES: COC1=C(OC)C(=O)C(CCCCCCCCCC[P+](c2ccccc2)(c2ccccc2)c2ccccc2)=C(C)C1=O [MitoQ]
- uptake by muscle and adipose tissue ([4]; 1 h after 100 nmol iv): lower uptake
- uptake by the brain ([4]; 1 h after 100 nmol iv): very little uptake
- uptake by the heart ([4]; 1 h after 100 nmol iv): less extensive uptake
- uptake by the liver and kidneys ([4]; 1 h after 100 nmol iv): extensive uptake
- heart/blood ratio, in ratio (TPMP = 1) ([4]; 1 h after iv injection): 11
- uptake into the heart, ratio (TPMP = 1) ([4]; 1 h after iv injection): 6
- heart/blood ratio, in ratio (TPMP = 1) ([4]; 5 h after iv injection): 26
- uptake into the heart, ratio (TPMP = 1) ([4]; 5 h after iv injection): 10
- half life for loss from the heart [4, 9]: ~15 h
- half life for loss from the kidneys [4, 9]: ~4 h
- half life for loss from the liver [4, 9]: ~2 h
- time of maximum uptake into tissues ([4]; mice, 100 nmol iv, earliest time measurable): 5 min
- toxicity of the injected amount [7]: non-toxic
- Octanol/PBS partition coefficient [5]: 2760
- MitoQ eliminated [8]: ~80%
